These results are taken from PubChem BioAssay (NCI).

Among the test systems are A498 renal; CCRF-CEM leukemia; COLO 205 colon; HL-60(TB) leukemia; HT29 colon; M14 melanoma; MOLT-4 leukemia; OVCAR-5 ovarian; PC-3 prostate; SF-268 CNS.
Common to all, as to assay: NCI tumour cell line growth inhibition, 48 h

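Where inhibition never reached the appropriate level, the endpoint shown equals the highest concentration tested. Otherwise, values were interpolated linearly from a five-concentration, 48-hour dose response in 96-well plates. GI50 = concentration required for 50% inhibition of growth. The concentration for full growth arrest is given as TGI.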

Regarding `Nc1nc2c(c3ncccc13)C(c1cccc(Cl)c1)Cc1ncccc1-2` (stereo not drawn), the GI50 with A498 renal was 1.35 µM; in the assay with CCRF-CEM leukemia it was 2.12 µM; in the assay on COLO 205 colon, 1.53 µM; with HL-60(TB) leukemia, 1.21 µM; in the assay with HT29 colon, 0.805 µM; in the assay on M14 melanoma, 1.23 µM. The GI50 was 2.43 µM in the assay with MOLT-4 leukemia, 6.42 µM with OVCAR-5 ovarian, 2.6 µM with PC-3 prostate and 3.79 µM in the assay on SF-268 CNS. For the same compound, the TGI with A498 renal was 6.24 µM; in the assay with CCRF-CEM leukemia, 48.6 µM; in the assay on COLO 205 colon, 3.94 µM; in the assay with HL-60(TB) leukemia it was 10.3 µM; in the assay with HT29 colon, 10.8 µM; in the assay with M14 melanoma, 12.7 µM. For the same compound, the TGI in the assay on MOLT-4 leukemia was 50.4 µM; in the assay with OVCAR-5 ovarian, greater than 100 µM; with PC-3 prostate it was 17.6 µM; in the assay on SF-268 CNS, 32.1 µM.
Turning to `COC(=O)[C@]12CC[C@@H](C)[C@H](C)[C@@H]1C1=CC[C@@H]3[C@@]4(C)C(C=O)=C[C@@](C)(COC(C)=O)[C@@H]4[C@H](O)C[C@@]3(C)[C@]1(C)CC2`, the GI50 is 2.6 µM in the assay with A498 renal; 1.98 µM in the assay on CCRF-CEM leukemia; 2.14 µM in the assay with COLO 205 colon; 2.53 µM in the assay with HL-60(TB) leukemia; 1.92 µM in the assay with HT29 colon; 2.15 µM in the assay on M14 melanoma. In addition, the GI50 in the assay with MOLT-4 leukemia is 1.34 µM; in the assay with OVCAR-5 ovarian it was 2.03 µM; in the assay on PC-3 prostate it was 1.73 µM; with SF-268 CNS, 2.65 µM. The TGI is 10.2 µM with A498 renal; 7.01 µM in the assay with CCRF-CEM leukemia; 4.96 µM with COLO 205 colon; 5.42 µM in the assay with HL-60(TB) leukemia; 3.97 µM with HT29 colon; 5.51 µM in the assay on M14 melanoma. For the same compound, the TGI in the assay with MOLT-4 leukemia is 5.02 µM; in the assay on OVCAR-5 ovarian, 5.6 µM; with PC-3 prostate, 5.74 µM; in the assay on SF-268 CNS, 9.14 µM.
`COc1cc(/C=C/C(=O)c2cc(F)c(Cl)cc2Cl)cc(OC)c1OC`: the GI50 with A498 renal was greater than 100 µM; with CCRF-CEM leukemia, 23.8 µM; with COLO 205 colon, 14.7 µM; in the assay with HL-60(TB) leukemia it was 16.6 µM; in the assay with HT29 colon, 15.2 µM; with M14 melanoma it was 43.9 µM. For the same compound, the GI50 with MOLT-4 leukemia was 12.9 µM; with OVCAR-5 ovarian, 25.2 µM; with PC-3 prostate, 12.5 µM; in the assay with SF-268 CNS, 68.9 µM. In addition, the TGI with A498 renal is greater than 100 µM; in the assay with CCRF-CEM leukemia it was 76.4 µM; with COLO 205 colon, 45.5 µM; in the assay with HL-60(TB) leukemia, 71.9 µM; in the assay on HT29 colon it was 45 µM; in the assay on M14 melanoma, greater than 100 µM. Besides, the TGI with MOLT-4 leukemia is 52.9 µM; with OVCAR-5 ovarian, greater than 100 µM; with PC-3 prostate it was 85.8 µM; with SF-268 CNS it was greater than 100 µM.
Regarding `O=c1cccc(C#Cc2ccccc2)o1`, the GI50 in the assay on A498 renal was 2.38 µM; in the assay with COLO 205 colon, 12.6 µM; in the assay with HL-60(TB) leukemia, 0.71 µM; with HT29 colon it was 14.6 µM; with M14 melanoma it was 5.9 µM; with MOLT-4 leukemia it was 2.77 µM. Moreover, the GI50 with OVCAR-5 ovarian was 6.35 µM; in the assay with PC-3 prostate it was 3.41 µM; in the assay with SF-268 CNS it was 5.34 µM. For the same compound, the TGI was 7.02 µM in the assay on A498 renal; greater than 44 µM in the assay with CCRF-CEM leukemia; greater than 44.9 µM in the assay with COLO 205 colon; 8.17 µM in the assay with HL-60(TB) leukemia; greater than 100 µM with HT29 colon; greater than 22.8 µM in the assay on M14 melanoma. For the same compound, the TGI in the assay with OVCAR-5 ovarian is 16.1 µM; in the assay on PC-3 prostate, greater than 40.4 µM; in the assay on SF-268 CNS, greater than 96.7 µM.
For `CC(CN)[C@@H]1CC[C@]2(CO)CC[C@]3(C)[C@H](CC[C@@H]4[C@@]5(C)CCC(NCCO)C(C)(C)[C@@H]5CC[C@]43C)[C@@H]12` (stereo partly drawn), the GI50 in the assay with A498 renal was 11 µM; in the assay with CCRF-CEM leukemia, 1.99 µM; with COLO 205 colon it was 1.73 µM; in the assay with HL-60(TB) leukemia, 2.65 µM; in the assay on HT29 colon, 1.62 µM; in the assay with M14 melanoma it was 1.92 µM. Also, the GI50 in the assay with MOLT-4 leukemia was 1.56 µM; in the assay with OVCAR-5 ovarian, 2.11 µM; with PC-3 prostate, 2.53 µM; in the assay with SF-268 CNS, 1.75 µM. The TGI with A498 renal was found to be 23.5 µM; in the assay on CCRF-CEM leukemia it was 5 µM; in the assay with COLO 205 colon, 3.55 µM; in the assay with HL-60(TB) leukemia, 7.47 µM; in the assay on HT29 colon it was 3.26 µM; in the assay on M14 melanoma, 3.68 µM. Also, the TGI in the assay on MOLT-4 leukemia worked out at 4.28 µM; with OVCAR-5 ovarian, 5 µM; in the assay on PC-3 prostate, 11.4 µM; in the assay with SF-268 CNS it was 3.94 µM.
With `NC1=NC(c2ccccc2)N=C(Nc2ccccc2)N1` (stereo not drawn), the GI50 in the assay with A498 renal is 11.4 µM; with CCRF-CEM leukemia it was greater than 100 µM; in the assay with COLO 205 colon, 97.9 µM; with HL-60(TB) leukemia, greater than 100 µM; in the assay with HT29 colon it was greater than 100 µM; with M14 melanoma, greater than 100 µM. The GI50 was greater than 100 µM in the assay on MOLT-4 leukemia, greater than 100 µM in the assay with OVCAR-5 ovarian, greater than 100 µM in the assay on PC-3 prostate and 55.1 µM in the assay on SF-268 CNS. For the same compound, the TGI in the assay with A498 renal, with CCRF-CEM leukemia, in the assay with COLO 205 colon, with HL-60(TB) leukemia, in the assay on HT29 colon and in the assay on M14 melanoma was greater than 100 µM throughout. Moreover, the TGI in the assay on MOLT-4 leukemia, in the assay on OVCAR-5 ovarian, with PC-3 prostate and in the assay on SF-268 CNS was greater than 100 µM throughout.
As to `CN1CCN(c2ccc(-c3cnc4c(-c5csc6ccccc56)cnn4c3)cc2)CC1`, the GI50 is 4.2 µM with A498 renal; 4.43 µM in the assay on CCRF-CEM leukemia; 7.28 µM in the assay with COLO 205 colon; 5.89 µM in the assay with HL-60(TB) leukemia; 1.19 µM with HT29 colon; 5.01 µM in the assay with M14 melanoma. Moreover, the GI50 with MOLT-4 leukemia was 4.1 µM; in the assay with OVCAR-5 ovarian, greater than 15 µM; in the assay with PC-3 prostate, 5.59 µM; in the assay with SF-268 CNS it was greater than 15 µM. In addition, the TGI in the assay with A498 renal, in the assay on CCRF-CEM leukemia, with COLO 205 colon, with HL-60(TB) leukemia, in the assay with HT29 colon and in the assay with M14 melanoma was greater than 15 µM in each case. For the same compound, the TGI in the assay on MOLT-4 leukemia, with OVCAR-5 ovarian, in the assay on PC-3 prostate and in the assay on SF-268 CNS was greater than 15 µM throughout.
